Measured values taken from patent publication US11332459B2 (TEIJIN PHARMA LIMITED, priority 2017, dated 2022).
Where a name gives a salt, the structure may show the parent alone.

Molecular target: T1, human TRPC6 (Homo sapiens, UniProt Q9Y210)
T1 construct: expressed in transfected cells
T1 sequence (Q9Y210 1-931): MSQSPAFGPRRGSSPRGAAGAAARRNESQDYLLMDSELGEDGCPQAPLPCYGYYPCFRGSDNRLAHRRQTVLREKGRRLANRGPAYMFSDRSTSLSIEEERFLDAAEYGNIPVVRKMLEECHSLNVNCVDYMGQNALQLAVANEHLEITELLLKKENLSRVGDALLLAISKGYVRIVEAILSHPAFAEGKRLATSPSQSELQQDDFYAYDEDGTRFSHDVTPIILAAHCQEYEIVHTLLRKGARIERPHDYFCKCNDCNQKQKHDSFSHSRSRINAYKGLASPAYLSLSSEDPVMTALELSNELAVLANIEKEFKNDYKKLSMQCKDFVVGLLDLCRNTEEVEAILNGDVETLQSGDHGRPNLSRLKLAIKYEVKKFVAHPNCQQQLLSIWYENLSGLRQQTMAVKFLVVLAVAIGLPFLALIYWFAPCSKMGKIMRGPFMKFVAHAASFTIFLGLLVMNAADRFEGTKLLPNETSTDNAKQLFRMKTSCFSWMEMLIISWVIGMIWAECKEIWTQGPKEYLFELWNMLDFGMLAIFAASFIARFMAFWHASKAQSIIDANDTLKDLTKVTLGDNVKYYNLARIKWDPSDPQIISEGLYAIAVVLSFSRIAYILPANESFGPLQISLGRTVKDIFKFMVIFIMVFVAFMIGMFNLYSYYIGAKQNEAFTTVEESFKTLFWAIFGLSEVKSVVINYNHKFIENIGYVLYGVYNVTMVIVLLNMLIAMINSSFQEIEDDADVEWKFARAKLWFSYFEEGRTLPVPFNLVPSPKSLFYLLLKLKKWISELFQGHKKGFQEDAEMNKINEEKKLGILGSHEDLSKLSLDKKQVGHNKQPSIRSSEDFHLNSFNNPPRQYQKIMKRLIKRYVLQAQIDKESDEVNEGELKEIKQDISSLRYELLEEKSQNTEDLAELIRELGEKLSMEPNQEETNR
Assay: TRPC6 calcium flux assay (FLIPR, OAG-stimulated calcium influx)
Assay type: cell-based
Details: HEK293 cells stably transfected with human TRPC6, read-out: hTRPC6 Potency
Summary of the method: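 IC50 derived by plotting background-corrected peak fluorescence (180 s window, normalized to OAG-triggered signal vs buffer) against dose. Stable human TRPC6 HEK293 line was dye-loaded, exposed to compound 25 min, then challenged with 50 uM final OAG in 2 mM Ca2+ HEPES buffer pH 7.2, 0.5% DMSO.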

SMILES | IC50 [nM]
N#Cc1ccc(Cn2c(N3CCC[C@H](N)C3)nc3c(F)cc(F)cc32)nc1 [Example 61, (S)-6-((2-(3-aminopiperidin-1-yl)-4,6-difluoro-1H-benzo[d]imidazol-1-yl)methyl)nicotinonitrile] | 2.7
N#Cc1ccc(Cn2c(N3CCC(F)(F)[C@H](N)C3)nc3c(Cl)cccc32)nc1 [Example 10, (R)-6-((2-(3-amino-4,4-difluoropiperidin-1-yl)-4-chloro-1H-benzo[d]imidazol-1-yl)methyl)nicotinonitrile] | 6.06
N#Cc1ccc(Cn2c(N3C[C@@H](N)CC(F)(F)C3)nc3ccccc32)nc1 [Example 17, (S)-6-((2-(5-amino-3,3-difluoropiperidin-1-yl)-1H-benzo[d]imidazol-1-yl)methyl)nicotinonitrile] | 118
N#Cc1ccc(Cn2c(N3CCC[C@@H](N)C3)nc3ccccc32)nc1 [Example 291, (R)-6-((2-(3-aminopiperidin-1-yl)-1H-benzo[d]imidazol-1-yl)methyl)nicotinonitrile] | > 3750
N[C@@H]1CN(c2nc3cc(F)c(F)cc3n2CC(=O)N2CCN(c3ncccn3)CC2)CC[C@H]1F [Example 624, 2-(2-((3R,4R)-3-amino-4-fluoropiperidin-1-yl)-5,6-difluoro-1H-benzo[d]imidazol-1-yl)-1-(4-(pyrimidin-2-yl)piperazin-1-yl)ethanone] | 102
Cc1nc(C)c(Cn2c(N3CC[C@@H](F)[C@H](N)C3)nc3cc(F)ccc32)s1 [Example 596, (3R,4R)-1-(1-((2,4-dimethylthiazol-5-yl)methyl)-5-fluoro-1H-benzo[d]imidazol-2-yl)-4-fluoropiperidin-3-amine] | > 3750
N#Cc1ccc(Cn2c(N3C[C@@H](N)[C@H](c4ccccc4)C3)nc3ccccc32)cc1 (racemic) [Example 165, 4-((2-((3S,4R)-3-amino-4-phenylpyrrolidin-1-yl)-1H-benzo[d]imidazol-1-yl)methyl)benzonitrile & 4-((2-((3R,4S)-3 amino-4-phenylpyrrolidin-1-yl)-1H-benzo[d]imidazol-1-yl)methyl)benzonitrile] | 2060
C[C@@H](c1ccc(Cl)c(Cl)c1)n1c(N2CC[C@@H](F)[C@H](N)C2)nc2cc(F)c(F)cc21 [Example 333, (3R,4R)-1-(1-((1S)-1-(3,4-dichlorophenyl)ethyl)-5,6-difluoro-1H-benzimidazol-2-yl)-4-fluoro-3-piperidinamine] | 3250
N#Cc1ccc(Cn2c(N3CC[C@H](F)[C@@H](N)C3)nc3ccccc32)cc1 [Example 170, 4-((2-((3S,4S)-3-amino-4-fluoropiperidin-1-yl)-1H-benzo[d]imidazol-1-yl)methyl)benzonitrile] | 25.9
N#Cc1cc(F)cc2c1nc(N1CCC(F)(F)[C@H](N)C1)n2Cc1ncc(Cl)cn1 [Example 151, (R)-2-(3-amino-4,4-difluoropiperidin-1-yl)-1-((5-chloropyrimidin-2-yl)methyl)-6-fluoro-1H-benzo[d]imidazole-4-carbonitrile] | 6.06
N#Cc1ccc(Cn2c(N3C[C@H]4C[C@@]4(CN)C3)nc3ccccc32)nc1 [Example 74, 6-((2-((1R,5S)-1-(aminomethyl)-3-azabicyclo[3.1.0]hexan-3-yl)-1H-benzo[d]imidazol-1-yl)methyl)nicotinonitrile hydrochloride] | 380
COc1ccc2c(c1)nc(N1CC[C@H](F)[C@H](N)C1)n2Cc1ccc(C#N)cn1 [Example 148, 6-((2-((3R,4S)-3-amino-4-fluoropiperidin-1-yl)-5-methoxy-1H-benzo[d]imidazol-1-yl)methyl)nicotinonitrile hydrochloride] | 11.8
N#Cc1ccc(Cn2c(N3CC[C@H](F)[C@H](N)C3)nc3cc(F)ccc32)nc1 [Example 48, 6-((2-((3R,4S)-3-amino-4-fluoropiperidin-1-yl)-5-fluoro-1H-benzo[d]imidazol-1-yl)methyl)nicotinonitrile hydrochloride] | 2.21
CC1CCCN(C(=O)C2CCN(C(=O)Cn3c(N4CC[C@@H](F)[C@H](N)C4)nc4cc(F)c(F)cc43)CC2)C1 (stereo partly drawn) [Example 539, 2-(2-((3R,4R)-3-amino-4-fluoropiperidin-1-yl)-5,6-difluoro-1H-benzo[d]imidazol-1-yl)-1-(4-(3-methylpiperidine-1-carbonyl)piperidin-1-yl)ethan-1-one] | > 3750
N#Cc1ccc2nc(N3CC[C@@H](F)[C@H](N)C3)n(Cc3ncc(F)cn3)c2c1 [Example 196, 2-((3R,4R)-3-amino-4-fluoropiperidin-1-yl)-1-((5-fluoropyrimidin-2-yl)methyl)-1H-benzo[d]imidazole-6-carbonitrile] | 6.47
CC(=O)N1CCN(C(=O)Cn2c(N3CC[C@@H](F)[C@H](N)C3)nc3cc(F)c(F)cc32)CC1 [Example 540, 1-(4-acetylpiperazin-1-yl)-2-(2-((3R,4R)-3-amino-4-fluoropiperidin-1-yl)-5,6-difluoro-1H-benzo[d]imidazol-1-yl)ethan-1-one] | > 3750
N[C@@H]1CN(c2nc3cc(F)c(F)cc3n2Cc2ccc(F)cc2C(F)(F)F)CC[C@H]1F [Example 356, (3R,4R)-1-(5,6-difluoro-1-(4-fluoro-2-(trifluoromethyl)benzyl)-1H-benzimidazol-2-yl)-4-fluoro-3-piperidinamine] | 239
N#Cc1ccc(Cn2c(N3CC[C@@H](F)[C@H](N)C3)nc3ncc(Cl)cc32)nc1 [Example 93, 6-((2-((3R,4R)-3-amino-4-fluoropiperidin-1-yl)-6-chloro-1H-imidazo[4,5-b]pyridin-1-yl)methyl)nicotinonitrile] | 6.85
N#Cc1ccc(Cn2c(N3CC[C@@H](F)[C@H](N)C3)nc3cc(F)cc(F)c32)nc1 [Example 64, 6-((2-((3R,4R)-3-amino-4-fluoropiperidin-1-yl)-5,7-difluoro-1H-benzo[d]imidazol-1-yl)methyl)nicotinonitrile] | 132
CCN(CC1CCN(C(C)=O)C1)C(=O)Cn1c(N2CC[C@@H](F)[C@H](N)C2)nc2cc(F)c(F)cc21 (mixture of isomers) [Example 650, N-((1-acetylpyrrolidin-3-yl)methyl)-2-(2-((3R,4R)-3-amino-4-fluoropiperidin-1-yl)-5,6-difluoro-1H-benzo[d]imidazol-1-yl)-N-ethylacetamide] | > 1750
N[C@@H]1CN(c2nc3cc(F)c(F)cc3n2CC(=O)N2CCCc3cccnc32)CC[C@H]1F [Example 630, 2-(2-((3R,4R)-3-amino-4-fluoropiperidin-1-yl)-5,6-difluoro-1H-benzo[d]imidazol-1-yl)-1-(3,4-dihydro-1,8-naphthyridin-1(2H)-yl)ethanone] | 174
CN(CCF)C(=O)Cn1c(N2CC[C@@H](F)[C@H](N)C2)nc2cc(F)c(F)cc21 [Example 606, 2-(2-((3R,4R)-3-amino-4-fluoropiperidin-1-yl)-5,6-difluoro-1H-benzo[d]imidazol-1-yl)-N-(2-fluoroethyl)-N-methylacetamide] | 8.06
N[C@@H]1CN(c2nc3ccccc3n2Cc2ccc(Cl)cn2)CCC1(F)F [Example 85, (R)-1-(1-((5-chloropyridin-2-yl)methyl)-1H-benzo[d]imidazol-2-yl)-4,4-difluoropiperidin-3-amine hydrochloride] | 7.55
CN(C)C(=O)Cn1c(N2CC[C@@H](F)[C@H](N)C2)nc2cc(F)cc(F)c21 [Example 594, 2-(2-((3R,4R)-3-amino-4-fluoropiperidin-1-yl)-5,7-difluoro-1H-benzo[d]imidazol-1-yl)-N,N-dimethylacetamide] | > 3750
N[C@@H]1CN(c2nc3cc(F)c(F)cc3n2CC(=O)N2CCN(c3cnccn3)CC2)CC[C@H]1F [Example 511, 2-(2-((3R,4R)-3-amino-4-fluoropiperidin-1-yl)-5,6-difluoro-1H-benzo[d]imidazol-1-yl)-1-(4-(pyrazin-2-yl)piperazin-1-yl)ethan-1-one] | 158
N#Cc1ccc(Cn2c(N3CC[C@@H](F)[C@H](N)C3)nc3cc(F)ccc32)nc1 [Example 49, 6-((2-((3R,4R)-3-amino-4-fluoropiperidin-1-yl)-5-fluoro-1H-benzo[d]imidazol-1-yl)methyl)nicotinonitrile hydrochloride] | 1.09
CCC1CN(C(=O)Cn2c(N3CC[C@@H](F)[C@H](N)C3)nc3cc(F)c(F)cc32)CCO1 (stereo partly drawn) [Example 518, 2-(2-((3R,4R)-3-amino-4-fluoropiperidin-1-yl)-5,6-difluoro-1H-benzo[d]imidazol-1-yl)-1-(2-ethylmorpholino)ethan-1-one] | 400
